Experiments:
[1] = tested on: doxorubicin-resistant chronic myelogenous leukemia K562/iS9 cells; test: MTT cytotoxicity assay, K562/iS9; type: cell-based, human
Procedure: (§1) To estimate the anticancer potential of palladacycles 2a,b, their ability to inhibit cell growth in different solid and blood cancer cell lines was determined using the conventional MTT assay. […] This underscores the importance of a more labile pincer-type coordination that can be achieved not only by the introduction of two different donor centers (like hard nitrogen and soft sulfur atoms) but also via elongating one of the side arms (like in the considered thiophosphoryloxy and thiocarbamate derivatives). In turn, the stability of a pincer-type framework of complex 2b, used as a representative example, in neat DMSO, DMSO–water, and DMSO–PBS mixtures for 2 days was confirmed by the results of UV-vis spectroscopic studies (for the corresponding spectra, see Figures S33–S35 in the SI).
(§2) However, in certain cases, the selectivity indices approached and even exceeded 10.0. Of particular note is the same level of cytotoxicity of both benzothiazole–thiocarbamate complexes against parental cell lines and doxorubicin-resistant clones of non-cancerous mammary epithelial cells (HBL100 and HBL100/Dox) and, more importantly, chronic myelogenous leukemia cells K562 and K562/iS9. The additional investigations by flow cytometry performed on K562 and K562/iS9 cancer cells treated with complex 2a using the Annexin V-FITC/PI double staining assay confirmed its ability to […] (Figure 4), increasing the populations of early (lower right quadrants) and late (upper right quadrants) apoptotic cells in both parental and resistant lines. These findings argue for the possibility of creating new promising anticancer agents based on the related cyclopalladated derivatives that could potentially evade drug resistance of cancer cells.
(§3) The cytotoxicities of ligand 1b and Pd(II) pincer complexes 2a,b, V, and VI (X = O) were studied on human colorectal carcinoma (HCT116), breast cancer (MCF7), prostate adenocarcinoma (PC3), chronic myelogenous leukemia (K562 and K562/iS9), multiple plasmacytoma (AMO1), and acute lymphoblastic leukemia (H9) cell lines, as well as human embryonic kidney (HEK293) and mammary epithelial (HBL100 and HBL100/Dox) cells used as representatives of non-cancerous cell lines. All the cell lines were obtained from American Type Culture Collection (ATCC). The tested compounds were initially dissolved in DMSO. Cisplatin (in the initial form of an infusion concentrate in natural saline solution) from a commercial source was used as a positive control. The detailed procedure is described in Ref. [52].

[2] = tested on: doxorubicin-resistant mammary epithelial HBL100/Dox cells; test: MTT cytotoxicity assay, HBL100/Dox; type: cell-based, human; settings: HBL100/dox (non-cancerous, doxorubicin-resistant)
Procedure: as §1, §2, §3

human cell lines = test: MTT cytotoxicity assay, cell line panel (line not specified); type: cell-based; settings: at a concentration as high as 60 μM
Procedure: as §1
However, in certain cases, the selectivity indices approached and even exceeded 10.0. Of particular note is the same level of cytotoxicity of both benzothiazole–thiocarbamate complexes against parental cell lines and doxorubicin-resistant clones of non-cancerous mammary epithelial cells (HBL100 and HBL100/Dox) and, more importantly, chronic myelogenous leukemia cells K562 and K562/iS9. […]

[3] = tested on: human colorectal carcinoma (HCT116) cells; test: MTT cytotoxicity assay, HCT116; type: cell-based; settings: for IC50: HCT116, MTT assay
Procedure: (§4) To estimate the anticancer potential of palladacycles 2a,b, their ability to inhibit cell growth in different solid and blood cancer cell lines was determined using the conventional MTT assay.
as §3, with “Cisplatin (in the initial form of an infusion concentrate in natural saline solution) from a commercial source was used as a positive control.” left out

[4] = tested on: breast cancer (MCF7) cells; test: MTT cytotoxicity assay, MCF7; type: cell-based, human; settings: for IC50: MCF7, MTT assay
Procedure: as §4
as §3, with “Cisplatin (in the initial form of an infusion concentrate in natural saline solution) from a commercial source was used as a positive control.” left out

[5] = tested on: prostate adenocarcinoma (PC3) cells; test: MTT cytotoxicity assay, PC3; type: cell-based, human; settings: for IC50: PC3, MTT assay
Procedure: as §4
as §3, with “Cisplatin (in the initial form of an infusion concentrate in natural saline solution) from a commercial source was used as a positive control.” left out

[6] = tested on: chronic myelogenous leukemia K562 cells; test: MTT cytotoxicity assay, K562; type: cell-based, human
Procedure: as §4
as §3, with “Cisplatin (in the initial form of an infusion concentrate in natural saline solution) from a commercial source was used as a positive control.” left out

[7] = tested on: multiple plasmacytoma (AMO1) cells; test: MTT cytotoxicity assay, AMO1; type: cell-based, human
Procedure: as §4
as §3, with “Cisplatin (in the initial form of an infusion concentrate in natural saline solution) from a commercial source was used as a positive control.” left out

[8] = tested on: acute lymphoblastic leukemia (H9) cells; test: MTT cytotoxicity assay, H9; type: cell-based, human
Procedure: as §4
as §3, with “Cisplatin (in the initial form of an infusion concentrate in natural saline solution) from a commercial source was used as a positive control.” left out

[9] = tested on: human embryonic kidney (HEK293) cells; test: MTT cytotoxicity assay, HEK293; type: cell-based; settings: HEK293 (non-cancerous)
Procedure: as §4
as §3, with “Cisplatin (in the initial form of an infusion concentrate in natural saline solution) from a commercial source was used as a positive control.” left out

[10] = tested on: mammary epithelial HBL100 cells; test: MTT cytotoxicity assay, HBL100; type: cell-based, human; settings: HBL100 (non-cancerous)
Procedure: as §4
as §3, with “Cisplatin (in the initial form of an infusion concentrate in natural saline solution) from a commercial source was used as a positive control.” left out

[11] = Stability by UV-vis spectroscopy; type: physicochemical
Procedure: as §1
The UV–vis spectra were registered on a Cary50 spectrometer in quartz cells with 10 mm path length (Figures S33–S35 in the SI).
Figure S33. […]
DMSO–PBS (1:1) registered immediately after dissolution (a) , in one ( b) or two (c) days Note: a reduction in the absorbance in the case of the DMSO–PBS (1:1) solution in time is connected […]
To confirm its identity, the resulting precipitate was collected by filtration, dried in air, dissolved in neat DMSO, and immediately analyzed by UV-Vis spectroscopy (see Fig. S35). […]

| behaviour in DMSO–PBS (1:1) solution in time (reduction in absorbance) ([11]; DMSO–PBS (1:1), up to 2 days) | stability of the pincer-type framework ([11]; neat DMSO, DMSO–water and DMSO–PBS mixtures (1:1), 2 days) | Structure (SMILES) | IC50 [1] [µM] | IC50 [2] [µM] | cytotoxicity (human cell lines) | percentage of living cells ([3]; HCT116, at a concentration of 80 μM) | percentage of living cells ([4]; MCF7, at a concentration of 80 μM) | percentage of living cells ([5]; PC3, at a concentration of 80 μM) | IC50 [3] [µM] | IC50 [4] [µM] | IC50 [5] [µM] | IC50 [6] [µM] | IC50 [7] [µM] | IC50 [8] [µM] | IC50 [9] [µM] | IC50 [10] [µM] |
| --- | --- | --- | --- | --- | --- | --- | --- | --- | --- | --- | --- | --- | --- | --- | --- | --- |
| – | – | N.N.[Cl][Pt][Cl] [Cisplatin, reference compound] | 16 ± 2 | 23.6 ± 3.6 | – | – | – | – | – | – | – | – | – | – | – | – |
| – | – | CCN(CC)C(=S)Oc1cccc(-c2nc3ccccc3s2)c1 [1b, O-[3-(Benzo[d]thiazol-2-yl)phenyl] Diethylthiocarbamate] | – | – | nontoxic | – | – | – | – | – | – | – | – | – | – | – |
| – | – | [Cl][Pd-2]12[S+]=P(c3ccccc3)(c3ccccc3)c3cccc([c]31)-c1sc3ccccc3[n+]12 (centres unmarked) [V, reference compound] | – | – | – | over 60% | over 60% | over 60% | – | – | – | – | – | – | – | – |
| – | – | [Cl][Pd-2]12[S+]=P(c3ccccc3)(c3ccccc3)Oc3cccc([c]31)-c1sc3ccccc3[n+]12 (centres unmarked) [VI (X = O), reference compound] | 2.5 ± 0.4 | 28.6 ± 3.8 | – | – | – | – | 10.3 ± 0.8 | 17 ± 0.5 | 6.6 ± 0.6 | 1.9 ± 0.3 | 3.4 ± 0.5 | 1.7 ± 0.3 | 13 ± 0.5 | 9.4 ± 0.9 |
| gradual precipitation | confirmed | CCN(CC)C1=[S+][Pd-2]2([Cl])[c]3c(cccc3-c3sc4ccccc4[n+]32)O1 (centres unmarked) [2b] | 2.6 ± 0.8 | 16.3 ± 3.8 | – | – | – | – | 12.7 ± 1.5 | 13.5 ± 2.1 | 8.5 ± 2.5 | 2.9 ± 0.4 | 4.4 ± 0.8 | 2.1 ± 0.9 | 9.5 ± 0.7 | 10.2 ± 3.3 |
| – | – | CN(C)C1=[S+][Pd-2]2([Cl])[c]3c(cccc3-c3sc4ccccc4[n+]32)O1 (centres unmarked) [2a] | 0.9 ± 0.1 | 4.4 ± 0.8 | – | – | – | – | 1.3 ± 0.2 | 3.3 ± 0.4 | 1.1 ± 0.3 | 0.9 ± 0.2 | 0.3 ± 0.1 | 1.3 ± 0.1 | 2.5 ± 0.2 | 3.2 ± 0.5 |

— publication PMC10744248, “Unsymmetrical Pd(II) Pincer Complexes with Benzothiazole and Thiocarbamate Flanking Units: Expedient Solvent-Free Synthesis and Anticancer Potential” (International Journal of Molecular Sciences, 2023)
